Read-outs that look alike come from different tables or passages of the source. Where no end group is shown, it is not given here.
How the values were obtained:
ACE = settings: read-out: IC50 of ACE inhibition, cited from earlier work
Excerpt: ACE-inhibitory peptides from bovine milk protein have been described previously ([De Leo et al., 2009]). These bioactive peptides are typically produced by enzymatic hydrolysis, microbial fermentation, or genetic engineering. In particular, more attention has been focused on microbial fermentation as the food grade bacteria, such as lactic acid bacteria (LAB), provide enriched food bioactive substances ([Castellano et al., 2013]). Furthermore, the hydrolytic processing of milk protein through the action of chymosin and Lactobacillus casei can also improve cheese flavor ([Lemieux et al., 2010]) ...

[1] = target: T1, angiotensin I-converting enzyme (ACE) (Oryctolagus cuniculus, UniProt P12822); test: ACE-inhibitory activity determination by HPLC (hippuric acid from Hip-His-Leu); format: biochemical; settings: HPLC of hippuric acid, Hip-His-Leu 5 mM, sodium borate buffer 50 mM pH 8.1, ACE 0.1 U/mL, 37°C 60 min, mean ± SD, triplicate, read-out: IC50 of ACE inhibition
T1 sequence (P12822 34-1310): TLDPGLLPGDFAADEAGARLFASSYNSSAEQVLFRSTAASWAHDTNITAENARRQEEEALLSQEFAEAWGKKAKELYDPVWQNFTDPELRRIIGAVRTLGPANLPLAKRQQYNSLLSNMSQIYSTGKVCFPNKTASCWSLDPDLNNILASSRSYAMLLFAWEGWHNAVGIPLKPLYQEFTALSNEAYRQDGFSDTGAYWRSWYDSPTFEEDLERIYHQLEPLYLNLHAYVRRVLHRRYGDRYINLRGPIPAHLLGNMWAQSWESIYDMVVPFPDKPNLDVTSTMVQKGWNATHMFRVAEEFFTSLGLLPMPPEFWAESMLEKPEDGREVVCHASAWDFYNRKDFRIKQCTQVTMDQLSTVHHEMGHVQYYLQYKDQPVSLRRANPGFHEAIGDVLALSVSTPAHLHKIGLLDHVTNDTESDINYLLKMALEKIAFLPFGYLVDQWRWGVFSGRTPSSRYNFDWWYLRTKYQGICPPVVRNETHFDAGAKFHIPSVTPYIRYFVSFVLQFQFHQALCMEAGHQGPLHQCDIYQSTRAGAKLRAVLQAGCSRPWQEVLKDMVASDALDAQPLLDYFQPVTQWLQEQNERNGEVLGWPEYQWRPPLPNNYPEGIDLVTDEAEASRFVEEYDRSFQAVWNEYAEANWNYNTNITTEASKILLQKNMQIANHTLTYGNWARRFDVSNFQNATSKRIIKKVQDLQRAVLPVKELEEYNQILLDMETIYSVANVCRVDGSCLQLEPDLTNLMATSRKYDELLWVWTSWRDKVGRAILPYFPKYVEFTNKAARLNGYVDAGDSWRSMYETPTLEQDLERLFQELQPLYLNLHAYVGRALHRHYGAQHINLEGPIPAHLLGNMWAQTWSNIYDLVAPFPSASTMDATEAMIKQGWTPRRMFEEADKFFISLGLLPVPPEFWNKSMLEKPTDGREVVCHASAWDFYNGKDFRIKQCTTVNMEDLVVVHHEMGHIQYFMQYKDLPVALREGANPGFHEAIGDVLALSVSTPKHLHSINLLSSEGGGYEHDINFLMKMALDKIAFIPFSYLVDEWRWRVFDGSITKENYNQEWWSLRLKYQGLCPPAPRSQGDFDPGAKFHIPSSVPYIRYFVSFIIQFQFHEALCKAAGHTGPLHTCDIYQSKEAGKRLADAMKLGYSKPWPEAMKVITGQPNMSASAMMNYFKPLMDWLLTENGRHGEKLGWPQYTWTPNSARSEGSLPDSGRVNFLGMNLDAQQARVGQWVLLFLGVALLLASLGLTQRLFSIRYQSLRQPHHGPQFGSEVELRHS
Method: The determination was measured by HPLC, with slight changes according to the procedure described by [Gonzalez-Gonzalez et al. (2011)]. The sample (20 μL) was dissolved in 120 μL Hip-His-Leu (5 mM) with sodium borate buffer (50 mM, pH 8.1). After incubation at 37°C for 3 min, the ACE solution (0.1 U/mL, 10 μL) was added to the sample and incubated for 60 min at the above temperature. Subsequently, 0.15 mL HCl (1 M) was used to terminate the reaction. The content of hippuric acid (HA) produced by reaction was determined by reverse-phase high-performance liquid chromatography (RP-HPLC, Waters Corporation, United States). A symmetry C18 Column (3.9 × 150 mm, 5 μm, Waters, United States) was used with the Waters HPLC model Alliance 2690 system, which included an ultraviolet detector (Waters, United States). […] Flow rate was 0.8 mL/min. The sample (6 μL) was filtered (0.45 μm filter) and measured at 228 nm. A standard curve was generated using concentrations of standard HA and peak areas. The ACE-inhibitory activity was determined as:
ACEinhibitoryactivity(%)=[HA]control-[HA]sample/[HA]control×100%
The concentration of inhibitor that inhibits 50% ACE activity is defined as IC50 value.

[2] = peptides from low-fat milk fermented with several LAB, ref Chen et al. (2007)

Row | Substance | IC50 [1] [µM] | other results
1 | Gly-Thr-Trp | – | IC50 (ACE; [2]): 464 µM
2 | Gly-Val-Trp | – | IC50 (ACE; [2]): 240 µM
3 | KAALSGM [Lys-Ala-Ala-Leu-Ser-Gly-Met] | 110 ± 3.87 | –
4 | LDHVPGGAR [Leu-Asp-His-Val-Pro-Gly-Gly-Ala-Arg] | 201 ± 5.24 | –
5 | RLSFDP [literature peptide from β-lactoglobulin hydrolysate (f148-153), sour milk fermented with Lb. helveticus LB10] | – | IC50 (ACE; from sour milk fermented with Lb. helveticus LB10, β-lactoglobulin hydrolysate (f148-153), ref Pan and Guo (2010)): 177 µM

Second part, led by results:

Row | IC50 [1] [µM] | Substance | other results
6 | 189 ± 4.61 | KKAAMAM [Lys-Lys-Ala-Ala-Met-Ala-Met] | –
7 | 77.5 ± 2.74 | KPAGDF [Lys-Pro-Ala-Gly-Asp-Phe] | –

From article PMC6892751, “Novel Angiotensin-Converting Enzyme-Inhibitory Peptides From Fermented Bovine Milk Started by Lactobacillus helveticus KLDS.31 and Lactobacillus casei KLDS.105: Purification, Identification, and Interaction Mechanisms” (Frontiers in Microbiology, 2019)
